Reference: patent US20090062401A1, “DECALINE-DERIVED COMPOUNDS AS […] ACTIVE AGENTS” (UNIVERSITAT DORTMUND, priority 2004, published 2009)

How the values were obtained:
Format in all cases: biochemical
PTP1B = molecular target: T1, PTP1B (Homo sapiens, UniProt P18031); assay: PTP1B phosphatase inhibition, general phosphatase assay using para-nitrophenylphosphate; settings: read-out: IC50 Target PTP1B
T1 sequence (P18031 1-435): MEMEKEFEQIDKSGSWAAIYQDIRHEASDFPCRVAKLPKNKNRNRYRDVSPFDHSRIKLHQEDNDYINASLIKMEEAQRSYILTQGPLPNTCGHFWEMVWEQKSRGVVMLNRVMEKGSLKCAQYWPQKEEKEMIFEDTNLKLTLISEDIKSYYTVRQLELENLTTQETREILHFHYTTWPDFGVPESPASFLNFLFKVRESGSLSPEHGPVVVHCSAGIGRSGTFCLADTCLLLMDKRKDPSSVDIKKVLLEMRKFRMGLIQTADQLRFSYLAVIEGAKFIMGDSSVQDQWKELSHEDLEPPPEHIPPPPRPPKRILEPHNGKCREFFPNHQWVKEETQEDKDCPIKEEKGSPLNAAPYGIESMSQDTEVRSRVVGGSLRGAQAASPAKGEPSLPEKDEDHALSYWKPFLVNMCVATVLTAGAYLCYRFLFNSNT
Description: (§1) Assays protocols for the other enzymes mentioned herein (MtPTPA, PP1, VHR, PTP1B) are disclosed in Schweizer R A S, Atanasov, G A, Frey B M, and Odermatt A, Mol. Cell. Endocrinol. 2003, 212, 41-49 and Barratte, B., Meijer L., Galaktionov K. & Beach D, Anticancer Res. 1992, 12, 873-880. For determination of the phosphatase activity, a general phosphatase assay using para-nitrophenylphosphate was applied.

VHR = VHR (Homo sapiens, UniProt P51452); assay: VHR phosphatase inhibition, general phosphatase assay using para-nitrophenylphosphate; settings: read-out: IC50 Target VHR
Description: as §1

Cdc25A = molecular target: T2, Cdc25A (Homo sapiens, UniProt P30304); assay: Cdc25A phosphatase inhibition; settings: read-out: IC50 Target Cdc25A
T2 sequence (P30304 1-524): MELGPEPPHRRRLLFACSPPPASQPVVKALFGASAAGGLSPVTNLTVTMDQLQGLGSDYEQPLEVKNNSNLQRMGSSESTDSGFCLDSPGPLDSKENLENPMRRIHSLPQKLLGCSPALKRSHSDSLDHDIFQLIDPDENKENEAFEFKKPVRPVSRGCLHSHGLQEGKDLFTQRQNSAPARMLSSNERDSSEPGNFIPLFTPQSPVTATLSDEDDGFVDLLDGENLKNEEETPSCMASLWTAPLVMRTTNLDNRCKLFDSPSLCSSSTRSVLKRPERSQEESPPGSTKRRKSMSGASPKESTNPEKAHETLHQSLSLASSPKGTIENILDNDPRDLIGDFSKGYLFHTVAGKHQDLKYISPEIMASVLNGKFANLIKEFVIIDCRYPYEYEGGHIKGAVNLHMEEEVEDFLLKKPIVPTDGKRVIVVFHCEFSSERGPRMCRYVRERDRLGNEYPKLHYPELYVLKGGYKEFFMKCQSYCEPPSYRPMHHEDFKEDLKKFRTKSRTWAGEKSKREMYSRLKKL
Description: Assay protocols for Cdc25A, 11βHSD1, 11βHSD2, and AChE are described in detain in the publication of Koch M A, Wittenberg L O, Basu S, Jeyaraj D A, Gourzoulidou E, Reinecke K, Odermatt A, Waldmann H (Proc. Natl. Acad. Sci. U.S.A. 2004 Nov. 30; 101(48):16721-6) and in Koch M A et al., Proc. Natl. Acad. Sci. U.S.A. 2005 Nov. 29; 102 (48):17272-7.

Chain of VHR (P51452 whole entry, species assumed): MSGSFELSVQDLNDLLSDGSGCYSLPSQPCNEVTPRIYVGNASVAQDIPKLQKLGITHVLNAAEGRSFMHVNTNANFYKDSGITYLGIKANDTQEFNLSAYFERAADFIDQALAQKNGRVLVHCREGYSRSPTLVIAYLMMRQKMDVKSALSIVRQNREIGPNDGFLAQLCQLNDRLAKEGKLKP

| IC50 (PTP1B) | IC50 (VHR) | Structure (SMILES) | IC50 (Cdc25A) |
| --- | --- | --- | --- |
| 10 to 50 µM | – | CC1=C2CCC[C@H](O)[C@@]2(C)C/C(=C\c2ccc(OCc3ccccc3)cc2)C1=O [Compound 66, (3E,4aS,5S)-3-[4-(Benzyloxy)benzyliden]-4,4a,5,6,7,8-hexahydro-5-hydroxy-1,4a-dimethylnaphthalen-2(3H)-one] | – |
| 10 to 50 µM | – | CCCCCCCCCC#Cc1ccc(/C=C2\C[C@@]3(C)C(=C(C)C2=O)CCC[C@@H]3O)cc1 [Compound 90, (3E,4aS,5S)-3-[4-(Undec-1-inyl)benzyliden]-4,4a,5,6,7,8-hexahydro-5-hydroxy-1,4a-dimethylnaphthalen-2(3H)-one] | – |
| 10 to 50 µM | – | C=CC[C@@]12C(=CC(=O)/C(=C/CC)[C@@H]1C)CCC[C@@H]2O [Compound 282, (3E,4R,4aS,5S)-4a-Allyl-4,4a,5,6,7,8-hexahydro-5-hydroxy-4-methyl-3-propylidennaphthalen-2(3H)-one] | – |
| 10 to 50 µM | 10 to 50 µM | CC1=C2CCC[C@H](O)[C@@]2(C)CC(=Cc2ccc(C#Cc3ccncc3)cc2)C1=O [Compound 395, (4aS,5S)-5-Hydroxy-1,4a-dimethyl-3-(4-pyridin-4-ylethynyl-benzylidene)-4,4a,5,6,7,8-hexahydro-3H-naphthalen-2-one] | – |
| 10 to 50 µM | – | CC1=C2CC(C(C)C)CC(O)C2CCC1=O (stereo not shown) [Compound 417, 5-Hydroxy-7-isopropyl-1-methyl-4,4a,5,6,7,8,-hexahydro-3H-naphthalen-2-one] | – |
| – | 10 to 50 µM | COc1cc(CC2(C)C(NC3CCCCC3)CC[C@@]3(C)C2CCC[C@@H]3O)cc(OC)c1 (stereo partly drawn) [Compound 146, (1S,8aS)-5-(3,5-Dimethoxybenzyl)-6-(cyclohexylamino)-decahydro-5,8a-dimethylnaphthalen-1-ol] | – |
| 10 to 50 µM | – | CC1=C2CCC[C@H](O)[C@@]2(C)C/C(=C\c2c(C)c(C)c(C)c(C)c2C)C1=O [Compound 61, (3E,4aS,5S)-3-(2,3,4,5,6-Pentamethylbenzyliden)-4,4a,5,6,7,8-hexahydro-5-hydroxy-1,4a-dimethylnaphthalen-2(3H)-one] | – |
| – | 10 to 50 µM | CC1=C2CCC[C@H](O)[C@@]2(C)C/C(=C\c2c[nH]c3ccccc23)C1=O [Compound 115, (3E,4aS,5S)-3-[(1H-Indol-3-yl)methylen]-4,4a,5,6,7,8-hexahydro-5-hydroxy-1,4a-dimethylnaphthalen-2(3H)-one] | – |
| – | 10 to 50 µM | COc1cc(OC)c(/C=C2\C[C@]3(C)C(=O)CCCC3=C(C)C2=O)c(OC)c1 [Compound 408, (3E,4aS)-5,8a-Dimethyl-7-(2,4,6-trimethoxy-benzylidene)-3,4,8,8a-tetrahydro-2H,7H-naphthalen-1,6-dione] | – |
| – | 10 to 50 µM | C[C@H]1/C(=C\c2ccccc2)C(=O)C=C2CCC[C@H](O)[C@]21C [Compound 203, (3E,4R,4aS,5S)-3-Benzyliden-4,4a,5,6,7,8-hexahydro-5-hydroxy-4,4a-dimethylnaphthalen-2(3H)-one] | – |
| – | 10 to 50 µM | CC1C(=O)/C(=C/c2ccccc2OCc2ccccc2)C[C@@]2(C)C1CCC[C@@H]2O (stereo partly drawn) [Compound 190, (E,4aS,5S)-3-[2-(Benzyloxy)-benzyliden]-octahydro-5-hydroxy-1,4a-dimethylnaphthalen-2(1H)-one] | – |
| – | 10 to 50 µM | CCc1ccc(/C=C2\C[C@@]3(C)C(CCC[C@@H]3O)C(C)C2=O)c(C)c1 (stereo partly drawn) [Compound 89, (E,4aS,5S)-3-(4-Ethyl-2-methylbenzyliden)-octahydro-5-hydroxy-1,4a-dimethylnaphthalen-2(1H)-one] | – |
| – | 10 to 50 µM | CC1(Cc2ccccc2[N+](=O)[O-])C(=O)CC[C@@]2(C)C1CCC[C@@H]2O (stereo partly drawn) [Compound 405, (4aS,5S)-5-Hydroxy-1,4a-dimethyl-1-(2-nitro-benzyl)-octahydro-naphthalen-2-one] | – |
| – | 10 to 50 µM | C=CC[C@@]12C(=CC(=O)/C(=C/C3=CC[C@@H](C(=C)C)CC3)[C@@H]1C)CCC[C@@H]2O [Compound 241] | – |
| – | 10 to 50 µM | CCCC(C)/C=C1\C[C@@]2(C)C(=CC1=O)CCC[C@@H]2O (stereo partly drawn) [Compound 225, (3E,4aS,5S)-4,4a,5,6,7,8-Hexahydro-5-hydroxy-4a-methyl-3-(2-methylpentyliden)naphthalen-2(3H)-one] | – |

The next lines start with the compound.

| Structure (SMILES) | IC50 (PTP1B) | IC50 (VHR) | IC50 (Cdc25A) |
| --- | --- | --- | --- |
| CC1=C2CCC[C@H](O)[C@@]2(C)C/C(=C\c2cccs2)C1=O [Compound 30, (3E,4aS,5S)-4,4a,5,6,7,8-Hexahydro-5-hydroxy-1,4a-dimethyl-3-[(thiophen-2-yl)methylen]naphthalen-2(3H)-one] | 10 to 50 µM | 10 to 50 µM | – |
| COCC#Cc1cccc(/C=C2\C[C@@]3(C)C(CCC[C@@H]3O)C(C)C2NC2CCCCC2)c1 (stereo partly drawn) [Compound 346, (E,1S,8aS)-7-[3-(3-Methoxyprop-1-inyl)benzyliden]-6-(cyclohexylamino)-decahydro-5,8a-dimethylnaphthalen-1-ol] | – | – | 10 to 50 µM |
| CC1=C2CCC[C@H](O)[C@@]2(C)C/C(=C\c2sccc2C)C1=O [Compound 33] | 10 to 50 µM | 10 to 50 µM | – |
| COC#Cc1ccc(/C=C2\C[C@@]3(C)C(=C(C)C2=O)CCC[C@@H]3O)cc1 [Compound 37, (3E,4aS,5S)-3-[4-(2-Methoxy-ethinyl)benzyliden]-4,4a,5,6,7,8-hexahydro-5-hydroxy-1,4a-dimethylnaphthalen-2(3H)-one] | 10 to 50 µM | – | – |
| CC1=C2CCC[C@H](O)[C@@]2(C)C/C(=C\c2ccc(C#CC3(O)CCCCC3)cc2)C1=O [Compound 48, (3E,4aS,5S)-3-{4-[2-(1-Hydroxycyclohexyl)ethinyl]benzyliden}-4,4a,5,6,7,8-hexahydro-5-hydroxy-1,4a-dimethylnaphthalen-2(3H)-one] | – | – | 10 to 50 µM |
| CC1=C2CCC[C@H](O)[C@@]2(C)C/C(=C\C[C@]2(O)C[C@@H](O)[C@@H](O)[C@H](O)C2)C1=O [Compound 58, (3E,4aS,5S)-4,4a,5,6,7,8-Hexahydro-5-hydroxy-3-{2-[(1S,3R,4S,5R)-1,3,4,5-tetrahydroxycyclohexyl]-ethyliden}-1,4a-dimethylnaphthalen2(3H)-one] | 10 to 50 µM | 10 to 50 µM | – |
| COc1ccc(/C=C2\C[C@@]3(C)C(=C(C)C2=O)CCC[C@@H]3O)c(C)c1 [Compound 16, (3E,4aS,5S)-3-(4-Methoxy-2-methylbenzyliden)-4,4a,5,6,7,8-hexahydro-5-hydroxy-1,4a-dimethylnaphthalen-2(3H)-one] | 10 to 50 µM | 10 to 50 µM | – |
| CC1=C2CCC[C@H](O)[C@@]2(C)C/C(=C\c2ccco2)C1=O [Compound 34, (3E,4aS,5S)-3-[(Furan-2-yl)methylen]-4,4a,5,6,7,8-hexahydro-5-hydroxy-1,4a-dimethylnaphthalen-2(3H)-one] | 10 to 50 µM | – | – |
| CC1=C2CCC[C@H](O)[C@@]2(C)C/C(=C\c2ccccc2)C1=O [Compound 18, (3E,4aS,5S)-3-benzylidene-4,4a,5,6,7,8-hexahydro-5-hydroxy-1,4a-dimethylnaphthalen-2(3H)-one] | – | 10 to 50 µM | – |
| CC1=C2CCC[C@H](O)[C@@]2(C)C/C(=C\CCc2ccco2)C1=O [Compound 59, (3E,4aS,5S)-3-[3-(Furan-2-yl)propyliden]-4,4a,5,6,7,8-hexahydro-5-hydroxy-1,4a-dimethylnaphthalen-2(3H)-one] | 10 to 50 µM | – | – |
| CC1=C2CCC[C@H](O)[C@@]2(C)C/C(=C\c2ccoc2)C1=O [Compound 62] | – | 10 to 50 µM | – |
| CC1=C2CCC[C@H](O)[C@@]2(C)C/C(=C\c2ccc(C#Cc3ccc(C)cc3)cc2)C1=O [Compound 41, (3E,4aS,5S)-3-[4-(2-p-Tolylethinyl)benzyliden]-4,4a,5,6,7,8-hexahydro-5-hydroxy-1,4a-dimethyl-naphthalen-2(3H)-one] | 10 to 50 µM | – | – |
| CCCCCCCCCCCCCCC#Cc1ccc(/C=C2\C[C@@]3(C)C(=C(C)C2=O)CCC[C@@H]3O)cc1 [Compound 43, (3E,4aS,5S)-3-[4-(Hexadec-1-inyl)benzyliden]-4,4a,5,6,7,8-hexahydro-5-hydroxy-1,4a-dimethyl-naphthalen-2(3H)-one] | 10 to 50 µM | 10 to 50 µM | – |
